The assay deals with THP-1 cell line. As to the kind of experiment: Cell proliferation assay (Promega Cell Titer-Glo) using cell line THP-1. It counts as cell-based. The procedure: To determine the in vitro IC50 of two peptides, and a positive control, cisplatin, against the THP-1 cell line, cell growth is determined using Promega's Cell Titer-Glo® assay. THP-1 tumor cells are placed in a 96-well microculture plate (Costar white, flat bottom #3917) at 20,000 cells per well, in a total volume of 90 μL/well. After 24 hours of incubation in a humidified incubator at 37 C with 5% CO2 and 95% air, 10 μL of 10×, serially diluted test agents in growth medium are added to each well. […] 100 μL of Cell Titer-Glo® reagent are added to each well. The plate is shaken for 2 minutes and then left to equilibrate for 10 minutes before determining luminescence on a Tecan GENios microplate reader. Percent inhibition of cell growth is calculated relative to untreated control wells. All tests are performed in duplicate at each concentration level. The IC50 value for the test agents is estimated using Prism 3.03 by curve-fitting the data using the following four parameter-logistic equation: where Top is the maximal % of control absorbance, Bottom is the minimal % of control absorbance at the highest agent concentration, Y is the % of control absorbance, X is the agent concentration, IC50 is the concentration of agent that inhibits cell growth by 50% compared to the control cells, and n is the slope of the curve.
On the technique in general: ATP-based viability assays read luminescence as a measure of living cells.

By IC50 is commonly meant the midpoint of a concentration-inhibition curve.

Where two headings read alike, the source gives them in different places. Square brackets hold non-standard residues; d marks the D form. Peptide text beside a SMILES is read from it. d(pS) = N[C@H](COP(=O)(O)O)C(=O)O; pS = N[C@@H](COP(=O)(O)O)C(=O)O; dNle = CCCC[C@@H](N)C(=O)O

For `CC[C@@H](C)[C@@H](NC(=O)[C@@H](CCCCN)NC(=O)[C@@H](CCC(=O)O)NC(=O)[C@@H](CC(C)C)NC(=O)[C@@H](CCC(=O)O)NC(=O)[C@@H](CC(C)C)NC(=O)[C@@H](CC(C)C)NC(=O)[C@@H](CC(C)C)NC(=O)[C@@H](CCSC)NC(=O)[C@@H](CO)NC(=O)[C@H](NC(=O)[C@@H](CCC(=O)O)NC(=O)[C@@H](CC(N)=O)NC(=O)[C@@H](CCC(=O)O)NC(=O)[C@@H](CC(C)C)NC(=O)CNC(=O)[C@@H](Cc1ccc(O)cc1)NC(=O)CNC(=O)[C@@H](CCCNC(=N)N)NC(=O)[C@@H](CCCCN)NC(=O)[C@@H](CCCCN)NC(=O)[C@@H](CCCNC(=N)N)NC(=O)[C@@H](CCCNC(=N)N)NC(=O)[C@@H](CCC(N)=O)NC(=O)[C@@H](CCCNC(=N)N)NC(=O)[C@@H](CCCNC(=N)N)NC(=O)[C@H](N)CCCNC(=N)N)[C@H](C)O)C(=O)N[C@H](CCCNC(=N)N)C(N)=O` [SEQ ID NO: 16, dR dR dR dQ dR dR dK dK dR G dY G dL dE dN dE dT dS dM dL dL dL dE dL dE dK dI dR amide] (H-[dR][dR][dR][dQ][dR][dR][dK][dK][dR]G[dY]G[dL][dE][dN][dE][dT][dS][dM][dL][dL][dL][dE][dL][dE][dK][dI][dR]-NH2; N-terminus assumed), half-maximal inhibition (24 h) (IC50) was put at 21.6 µM.
Still for that read-out and setting: next, `CC[C@@H](C)[C@@H](NC(=O)[C@@H](CC(C)C)NC(=O)[C@@H](CC(N)=O)NC(=O)[C@@H](CC(=O)O)NC(=O)[C@@H](CC(C)C)NC(=O)[C@@H](CCSC)NC(=O)[C@@H](CO)NC(=O)[C@H](NC(=O)[C@@H](CCC(=O)O)NC(=O)[C@@H](CC(N)=O)NC(=O)[C@@H](CCC(=O)O)NC(=O)[C@@H](CC(C)C)NC(=O)CNC(=O)[C@@H](CCCNC(=N)N)NC(=O)[C@@H](CCCNC(=N)N)NC(=O)[C@@H](CCCNC(=N)N)NC(=O)[C@@H](CCCNC(=N)N)NC(=O)[C@@H](CCCNC(=N)N)NC(=O)[C@@H](CCCNC(=N)N)NC(=O)[C@@H](CCCNC(=N)N)NC(=O)[C@@H](CCCNC(=N)N)NC(=O)[C@H](N)CCCNC(=N)N)[C@H](C)O)C(=O)N[C@H](CCCCN)C(=O)N[C@H](CCCNC(=N)N)C(=O)N[C@H](Cc1ccc(O)cc1)C(=O)N[C@@H](COP(=O)(O)O)C(=O)NCC(N)=O` [SEQ ID NO: 14, dR dR dR dR dR dR dR dR dR G dL dE dN dE dT dS dM dL dD dN dL dI dK dR dY pS G amide] (H-[dR][dR][dR][dR][dR][dR][dR][dR][dR]G[dL][dE][dN][dE][dT][dS][dM][dL][dD][dN][dL][dI][dK][dR][dY][pS]G-NH2; N-terminus assumed): 13.9 µM.
In the case of `N.N.[Cl][Pt][Cl]` [Cisplatin, cisplatin, reference compound], the IC50 reads like this: (THP-1 tumor cells, 96 total hours of culture, Cell Titer-Glo luminescence, Table 1, read-out: IC50 values) 1.6 µM; (THP-1 tumor cells, 96 total hours of culture, Cell Titer-Glo luminescence, Table 2, read-out: IC50 values) 1.6 µM.
As to `CCCC[C@@H](NC(=O)[C@@H](CCSC)NC(=O)[C@@H](CO)NC(=O)[C@H](NC(=O)[C@@H](CCC(=O)O)NC(=O)[C@@H](CC(N)=O)NC(=O)[C@@H](CCC(=O)O)NC(=O)[C@@H](CC(C)C)NC(=O)CNC(=O)[C@@H](CCCNC(=N)N)NC(=O)[C@@H](CCCNC(=N)N)NC(=O)[C@@H](CCCNC(=N)N)NC(=O)[C@@H](CCCNC(=N)N)NC(=O)[C@@H](CCCNC(=N)N)NC(=O)[C@@H](CCCNC(=N)N)NC(=O)[C@@H](CCCNC(=N)N)NC(=O)[C@@H](CCCNC(=N)N)NC(=O)[C@H](N)CCCNC(=N)N)[C@H](C)O)C(=O)N[C@H](CC(=O)O)C(=O)N[C@H](CC(N)=O)C(=O)N[C@H](CC(C)C)C(=O)N[C@@H](C(=O)N[C@H](CCCCN)C(=O)N[C@H](CCCNC(=N)N)C(=O)N[C@H](Cc1ccc(O)cc1)C(=O)N[C@@H](COP(=O)(O)O)C(=O)NCC(N)=O)[C@H](C)CC` [SEQ ID NO: 15, dR dR dR dR dR dR dR dR dR G dL dE dN dE dT dS dM dNIe dD dN dL dI dK dR dY pS G amide] (H-[dR][dR][dR][dR][dR][dR][dR][dR][dR]G[dL][dE][dN][dE][dT][dS][dM][dNle][dD][dN][dL][dI][dK][dR][dY][pS]G-NH2; N-terminus assumed), the IC50 (24 h) was determined as 14.1 µM.
On the same count and under the same terms, next, `CC[C@@H](C)[C@@H](NC(=O)[C@@H](CC(C)C)NC(=O)[C@@H](CC(N)=O)NC(=O)[C@@H](CC(=O)O)NC(=O)[C@@H](CC(C)C)NC(=O)[C@@H](CCSC)NC(=O)[C@@H](CO)NC(=O)[C@H](NC(=O)[C@@H](CCC(=O)O)NC(=O)[C@@H](CC(N)=O)NC(=O)[C@@H](CCC(=O)O)NC(=O)[C@@H](CC(C)C)NC(=O)CNC(=O)[C@@H](CCCNC(=N)N)NC(=O)[C@@H](CCCNC(=N)N)NC(=O)[C@@H](CCCNC(=N)N)NC(=O)[C@@H](CCCNC(=N)N)NC(=O)[C@@H](CCCNC(=N)N)NC(=O)[C@@H](CCCNC(=N)N)NC(=O)[C@@H](CCCNC(=N)N)NC(=O)[C@@H](CCCNC(=N)N)NC(=O)[C@H](N)CCCNC(=N)N)[C@H](C)O)C(=O)N[C@H](CCCCN)C(=O)N[C@H](CCCNC(=N)N)C(=O)N[C@H](Cc1ccc(O)cc1)C(=O)N[C@H](COP(=O)(O)O)C(=O)NCC(N)=O` [SEQ ID NO: 13, dR dR dR dR dR dR dR dR dR G dL dE dN dE dT dS dM dL dD dN dL dI dK dR dY dpS G amide] (H-[dR][dR][dR][dR][dR][dR][dR][dR][dR]G[dL][dE][dN][dE][dT][dS][dM][dL][dD][dN][dL][dI][dK][dR][dY][d(pS)]G-NH2; N-terminus assumed): 17.5 µM.

The values are drawn from patent publication US20120302503A1, “PEPTIDES FOR PREVENTING OR TREATING A DISEASE OR DISORDER ASSOCIATED WITH CBP OR p300 MISREGULATION, AND METHODS FOR USE AND IDENTIFICATION THEREOF” (AML Therapeutics, LLC, priority 2011, published 2012).
